From the CheMixHub viscosity set

Assay: xn = mol fraction of the nth substance listed

CCC#N + CCOC(C)=O
303.15 K, 101.33 kPa
Conditions	viscosity [mPa·s]
x1 = 0.1019	0.4034
x1 = 0.1916	0.4041
x1 = 0.2921	0.4038
x1 = 0.3979	0.4025
x1 = 0.4953	0.4012
x1 = 0.5954	0.3976
x1 = 0.6959	0.3954
x1 = 0.7981	0.3935
x1 = 0.9006	0.3915

Cl[Si](Cl)(Cl)Cl + CCOC(C)OCC
viscosity [mPa·s], 101 kPa
Conditions	303.1 K	313.1 K
x2 = 0.13	0.45	0.41
x2 = 0.2026	0.45	0.413
x2 = 0.3244	0.459	0.421
x2 = 0.4102	0.475	0.427
x2 = 0.4927	0.492	0.442
x2 = 0.5909	0.515	0.461
x2 = 0.6377	0.534	0.476
x2 = 0.6703	0.538	0.484
x2 = 0.71	0.552	0.49
x2 = 0.7457	0.541	0.481
x2 = 0.8082	0.52	0.467
x2 = 0.8385	0.492	0.447
x2 = 0.8813	0.456	0.41
x2 = 0.9655	0.416	0.375

c1ccc(Oc2ccccc2)cc1 + CCOCC
298.15 K, 101 kPa
Conditions	viscosity [mPa·s]
x2 = 0.0704	3.158
x2 = 0.1318	2.737
x2 = 0.2193	2.153
x2 = 0.3297	1.631
x2 = 0.4245	1.258
x2 = 0.5102	0.9926
x2 = 0.6076	0.7614
x2 = 0.7088	0.5733
x2 = 0.7826	0.4552
x2 = 0.9092	0.3106

c1ccc(Oc2ccccc2)cc1 + CCOc1ccccc1
298.15 K, 101 kPa
Conditions	viscosity [mPa·s]
x2 = 0.1367	3.264
x2 = 0.2072	3.003
x2 = 0.3253	2.63
x2 = 0.3731	2.455
x2 = 0.5105	2.096
x2 = 0.6002	1.862
x2 = 0.7037	1.632
x2 = 0.8127	1.451
x2 = 0.9006	1.309

OCCN(CCO)CCO + CN1CCCC1=O
viscosity [mPa·s], 101 kPa
Conditions	x2 = 0.0728	x2 = 0.1508	x2 = 0.2354	x2 = 0.3199	x2 = 0.4141	x2 = 0.5135	x2 = 0.6225	x2 = 0.7384	x2 = 0.863
293.15 K	572.9	337.4	162.4	84.29	43.36	22.93	11.2	6.152	3.354
303.15 K	255.2	159.4	84.21	47.61	27.51	14.93	8.012	4.62	2.747
313.15 K	123.8	77.19	47.61	28.9	16.82	10.34	5.907	3.554	1.892
323.15 K	56.97	40.67	29.54	18.75	11.33	7.604	4.552	2.766	1.497

CCC#N + CN(C)C=O
303.15 K, 101.33 kPa
Conditions	viscosity [mPa·s]
x1 = 0.1013	0.6977
x1 = 0.1952	0.6428
x1 = 0.3003	0.5983
x1 = 0.4007	0.5648
x1 = 0.4949	0.5385
x1 = 0.5976	0.5113
x1 = 0.6964	0.4839
x1 = 0.7945	0.4533
x1 = 0.9	0.4186

NC(N)=O + CN(C)C=O
101 kPa
Conditions	viscosity [mPa·s]
293.15 K, x1 = 0.00259	0.8641
293.15 K, x1 = 0.004089	0.8696
293.15 K, x1 = 0.005542	0.8749
293.15 K, x1 = 0.007625	0.8829
293.15 K, x1 = 0.008542	0.8861
293.15 K, x1 = 0.009703	0.8909
293.15 K, x1 = 0.01132	0.8964
293.15 K, x1 = 0.01367	0.906
298.15 K, x1 = 0.002771	0.8095
298.15 K, x1 = 0.00599	0.8163
298.15 K, x1 = 0.0088	0.8219
298.15 K, x1 = 0.01098	0.8295
298.15 K, x1 = 0.01142	0.8371
298.15 K, x1 = 0.01232	0.8421
298.15 K, x1 = 0.01349	0.8468
298.15 K, x1 = 0.0148	0.8557
303.15 K, x1 = 0.001637	0.7596
303.15 K, x1 = 0.003093	0.7641
303.15 K, x1 = 0.004755	0.7693
303.15 K, x1 = 0.005964	0.7728
303.15 K, x1 = 0.007418	0.7775
303.15 K, x1 = 0.008306	0.7799
303.15 K, x1 = 0.01015	0.7857
303.15 K, x1 = 0.01168	0.7908
308.15 K, x1 = 0.001989	0.7171
308.15 K, x1 = 0.003566	0.7214
308.15 K, x1 = 0.005107	0.7257
308.15 K, x1 = 0.006768	0.73
308.15 K, x1 = 0.008236	0.7345
308.15 K, x1 = 0.009277	0.7372
308.15 K, x1 = 0.01039	0.7403
308.15 K, x1 = 0.01098	0.7421

CCCCCCCCCCO + CO
viscosity [mPa·s], 101 kPa
Conditions	298.15 K	308.15 K	318.15 K
x2 = 0.05	10.38	7.137	5.136
x2 = 0.1	9.75	6.75	4.899
x2 = 0.15	9.096	6.352	4.649
x2 = 0.2	8.429	5.944	4.39
x2 = 0.25	7.757	5.531	4.121
x2 = 0.3	7.086	5.115	3.847
x2 = 0.35	6.425	4.699	3.567
x2 = 0.4	5.779	4.287	3.285
x2 = 0.45	5.154	3.88	3.003
x2 = 0.5	4.554	3.481	2.721
x2 = 0.55	3.984	3.093	2.443
x2 = 0.6	3.448	2.719	2.171
x2 = 0.65	2.947	2.36	1.905
x2 = 0.7	2.485	2.02	1.649
x2 = 0.75	2.063	1.7	1.405
x2 = 0.8	1.681	1.403	1.174
x2 = 0.85	1.34	1.131	0.958
x2 = 0.9	1.038	0.886	0.76
x2 = 0.95	0.776	0.669	0.582

NC(N)=O + CO
viscosity [mPa·s], 101 kPa
Conditions	293.15 K	298.15 K	303.15 K	308.15 K	313.15 K	318.15 K	323.15 K
x1 = 0.08238	0.924	0.849	0.781	0.721	0.668	0.62	0.576
x1 = 0.09642	–	0.9735	0.8914	0.8215	0.7546	0.6953	–
x1 = 0.1034	1.031	0.942	0.864	0.794	0.732	0.677	0.627
x1 = 0.1289	1.164	1.064	0.975	0.896	0.826	0.764	0.707
x1 = 0.138	–	1.222	1.111	1.019	0.9311	0.8588	–

CCCCCCCCCCCC + COC(=O)OC
298.15 K, 101.3 kPa
Conditions	viscosity [mPa·s]
x2 = 0.0451	1.266
x2 = 0.0943	1.206
x2 = 0.1375	1.157
x2 = 0.225	1.079
x2 = 0.3467	0.977
x2 = 0.4784	0.877
x2 = 0.6212	0.775
x2 = 0.7364	0.697
x2 = 0.8599	0.633
x2 = 0.9441	0.602

CCCCCCCCCCO + COC(=O)OC
viscosity [mPa·s], 100 kPa
Conditions	x2 = 0.1001	x2 = 0.2001	x2 = 0.3	x2 = 0.4	x2 = 0.5002	x2 = 0.6	x2 = 0.7001	x2 = 0.8	x2 = 0.9
303.15 K	7.04	5.107	3.812	2.818	2.121	1.582	1.196	0.901	0.683
308.15 K	5.988	4.394	3.309	2.477	1.885	1.423	1.084	0.831	0.637
313.15 K	5.091	3.804	2.897	2.191	1.686	1.288	0.991	0.772	0.596
318.15 K	4.385	3.313	2.552	1.953	1.519	1.167	0.913	0.716	0.559
323.15 K	3.777	2.903	2.258	1.751	1.37	1.069	0.843	0.667	0.526

CCOC(=O)OCC + COC(=O)OC
298.15 K, 101 kPa
Conditions	viscosity [mPa·s]
x1 = 0.0355	0.585
x1 = 0.0848	0.594
x1 = 0.1396	0.603
x1 = 0.2098	0.615
x1 = 0.2886	0.628
x1 = 0.3619	0.641
x1 = 0.4542	0.657
x1 = 0.5424	0.672
x1 = 0.6375	0.689
x1 = 0.7315	0.706
x1 = 0.838	0.726
x1 = 0.8896	0.736
x1 = 0.9462	0.747

COCCOCCO + COC(=O)OC
298.15 K, 101.33 kPa
Conditions	viscosity [mPa·s]
x1 = 0.0093	0.598
x1 = 0.0245	0.612
x1 = 0.037	0.623
x1 = 0.0694	0.655
x1 = 0.0966	0.685
x1 = 0.1283	0.723
x1 = 0.1675	0.774
x1 = 0.1922	0.806
x1 = 0.2198	0.848
x1 = 0.3005	0.984
x1 = 0.3454	1.069
x1 = 0.3786	1.142
x1 = 0.3835	1.154
x1 = 0.4083	1.214
x1 = 0.4365	1.284
x1 = 0.4695	1.364
x1 = 0.5345	1.538
x1 = 0.584	1.681
x1 = 0.623	1.803
x1 = 0.6563	1.916
x1 = 0.7394	2.226
x1 = 0.7818	2.402
x1 = 0.8262	2.598
x1 = 0.8705	2.802
x1 = 0.8876	2.889
x1 = 0.9134	3.004
x1 = 0.9327	3.098
x1 = 0.9669	3.272

CCC#N + COC(C)=O
303.15 K, 101.33 kPa
Conditions	viscosity [mPa·s]
x1 = 0.1119	0.35
x1 = 0.2022	0.3551
x1 = 0.2958	0.3608
x1 = 0.4008	0.3657
x1 = 0.4952	0.3692
x1 = 0.5946	0.3732
x1 = 0.6967	0.3773
x1 = 0.7985	0.3811
x1 = 0.9022	0.3857
